Measurements as given in patent publication US7879878B2, “Quinolone derivative or salt thereof” (Astellas Pharma Inc., priority 2003, dated 2011).

Assays:
human P2Y12 = molecular target: T1, human P2Y12 (Homo sapiens, UniProt Q9H244); assay: Substitution test of the binding between human P2Y12 and 2-methylthio-ADP (2-MeS-ADP); details: compound at 30 nM final concentration; [3H]-2-MeS-ADP; membrane fraction of C6-15 cells expressing human P2Y12
T1 construct: expressed in transfected cells; membrane fraction
T1 sequence (Q9H244 whole entry): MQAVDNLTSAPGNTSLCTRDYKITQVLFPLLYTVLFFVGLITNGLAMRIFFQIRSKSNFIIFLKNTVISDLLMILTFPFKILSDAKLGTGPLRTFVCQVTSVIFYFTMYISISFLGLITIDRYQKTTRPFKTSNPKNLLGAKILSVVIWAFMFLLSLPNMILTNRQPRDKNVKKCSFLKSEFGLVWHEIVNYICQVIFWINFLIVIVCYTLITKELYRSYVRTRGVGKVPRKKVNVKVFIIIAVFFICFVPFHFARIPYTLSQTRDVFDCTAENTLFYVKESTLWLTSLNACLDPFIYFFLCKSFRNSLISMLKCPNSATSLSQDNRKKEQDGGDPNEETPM
Method: (2) Substitution Test of the Binding Between Human P2Y12 and 2-methylthio-ADP (2-MeS-ADP)
After C6-15 cells were inoculated on a DMEM culture medium to 1×10^6 cells in a 10-cm petri dish for culturing for one day, where 8 μg of a plasmid pEF-BOS-dhfr-human P2Y12 and 0.8 μg of pEF-BOS-neo (Nucleic Acid Res., 18, 5322, 1990) were genetically introduced with a transfection reagent (LipofectAMINE 2000; manufactured by GIBCO BRL).
24 hours after the gene introduction procedure described above, the cells with the gene introduced therein were recovered and suspended in a DMEM culture medium containing 0.6 mg/ml G418 (manufactured by GIBCO BRL), to prepare serial dilutions, which were inoculated on a 10-cm petri dish. Colonies appearing 2 weeks later were individually obtained and defined as C6-15 cell expressing the protein P2Y12, for use in the following experiment (WO 02/36631, Mol. Pharmacol., 60, 432, 2001).
The C6-15 cell expressing the protein P2Y12 was cultured and recovered. […]
1.5 μl of an active ingredient or compound of the invention and 50 μl of 0.75 nM [^3H]-2-MeS-ADP (80 Ci/mmol; manufactured by Amersham Pharmacia Biotech) were added to 100 μl of the P2Y12 protein-expressing C6-15 cell membrane fraction (100 μg/ml) thus prepared, for incubation in 50 mM Tris-HCl, pH 7.4 containing 100 mM NaCl and 50 mM MgCl2, at ambient temperature for one hour. […] Adding a microscintillator onto the glass filter, the radioactivity was assayed with a liquid scintillation counter. At the test, additionally, the radioactivity levels of such cell cultures with no addition of the compound and with addition of 1.5 μl of 100 μM 2-MeS-ADP were assayed as total binding and non-specific binding, respectively. Defining the total binding and the non-specific binding at inhibition ratios of 0% and 100%, respectively, the inhibition ratio (%) of an active ingredient or compound in accordance with the invention was calculated.

[1] = tested on: Human platelet aggregation; assay: Test for assaying human platelet aggregation-inhibiting activity (ADP-induced aggregation in platelet-enriched plasma); assay type: cell-based; details: compound at 10 μM final concentration; human PRP; aggregation induced by ADP; area-under-the curve of platelet aggregation as indicator; read-out: % inhibition (Human platelet aggregation-inhibiting action)
Method: (1) Test for Assaying Human Platelet Aggregation-Inhibiting Activity
Blood was withdrawn from healthy human volunteers (adult males), in the presence of a 1/10th volume of sodium citrate, and centrifuged to obtain supernatant platelet-enriched plasma (PRP). The platelet count in PRP was determined with an automatic blood cell counter (MEK-6258; manufactured by NIHON KOHDEN CORPORATION). Then, the platelet count in PRP was adjusted to 3×10^8/ml with platelet-poor plasma. ADP as a platelet aggregation-inducing agent was a product of MCMEDICAL, Inc. Platelet aggregation was measured using an aggregometer (MCM Hematracer 212; MCMEDICAL, Inc.). Specifically, 80 μl of PRP and 10 μl of a solution of an active ingredient or compound of the invention or a solvent (10% DMSO) were incubated together at 37° C. for one minute, to which 10 μl of ADP (50 μM) was added to induce platelet aggregation. Then, the change of the transmitting light was recorded over 5 minutes. Using the area-under-the curve of platelet aggregation as an indicator, the inhibition ratio was calculated.

inhibition at 0.03 µM (human P2Y12)	Compound	inhibition at 10 µM [1]	% inhibition (Inhibition activity of the binding between P2Y12 and 2-MeS-ADP) (human P2Y12)
63%	CCC(CC)n1cc(C(=O)NC(C)(C)C(=O)O)c(=O)c2cc(F)c(NC3CCCCC3)cc21 [Example 28, 2-({[7-(cyclohexylamino)-1-(1-ethylpropyl)-6-fluoro-4-oxo-1,4-dihydroquinolin-3-yl]carbonyl}amino)-2-methylpropionic acid]	–	–
96%	CC1(C)OCC(n2cc(C(=O)NCCP(=O)(O)O)c(=O)c3cc(F)c(NC4CCCCC4)cc32)CO1 [Example 18, [2-({[7-(cyclohexylamino)-1-(2,2-dimethyl-1,3-dioxan-5-yl)-6-fluoro-4-oxo-1,4-dihydroquinolin-3-yl]carbonyl}amino)ethyl]phosphonic acid]	92%	–
–	CCOP(=O)(O)CCNC(=O)c1cn(C(CO)CO)c2cc(NC3CCCCC3)c(F)cc2c1=O [Example 22, ethyl{2-[({7-(cyclohexylamino)-6-fluoro-4-oxo-1-[2-hydroxy-1-(hydroxymethyl)ethyl]-4-oxo-1,4-dihydroquinolin-3-yl}carbonyl)amino]ethyl}phosphonic acid]	–	75%
